Assay results published in patent US6689773B2, “Uracil substituted phenyl sulfamoyl carboxamides” (BASF Aktiengesellschaft, priority 2000, dated 2004).

How the values were obtained:
Assay type in all cases: in vivo
[1] = system: ABUTH, Velvetleaf, Abutilon theophrasti, Medic.; assay: Postemergence herbicidal evaluation (Example 147); details: rating scale 0-9, two to three weeks after treatment
Method in brief: (§1)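 Seedlings grown about two weeks, then sprayed (nozzle at 40 psi) with compound in 80/20 acetone/water plus 1.0% methylated seed oil at about 0.016 to 0.032 kg/ha. Kept in greenhouse; visual injury rated 0-9 versus untreated control two to three weeks after treatment; replicate tests averaged.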

[2] = system: ALOMY, Blackgrass, Alopecurus myosuroides; assay: Postemergence herbicidal evaluation (Example 147); details: rating scale 0-9, two to three weeks after treatment
Method in brief: as §1

[3] = system: AMBEL, Ragweed, Common, Ambrosia artemiisifolia, L.; assay: Postemergence herbicidal evaluation (Example 147); details: rating scale 0-9, two to three weeks after treatment
Method in brief: as §1

[4] = system: CHEAL, Lambsquarters, Chenopodium album, L. Common; assay: Postemergence herbicidal evaluation (Example 147); details: rating scale 0-9, two to three weeks after treatment
Method in brief: as §1

[5] = system: DIGSA, Crabgrass, (Hairy) L, Digitaria sanguinalis, (L)Scop; assay: Postemergence herbicidal evaluation (Example 147); details: rating scale 0-9, two to three weeks after treatment
Method in brief: as §1

[6] = system: ECHCG, Barnyardgrass, Echinochloa crusgalli, (L.)Beau; assay: Postemergence herbicidal evaluation (Example 147); details: rating scale 0-9, two to three weeks after treatment
Method in brief: as §1

[7] = system: GLXMA, Soybean, Glycine max, (L.) Merr.; assay: Postemergence herbicidal evaluation (Example 147); details: rating scale 0-9, two to three weeks after treatment
Method in brief: as §1

[8] = system: IPOHE, Morningglory, Ivyleaf, Ipomoea hederacea, (L)Jacq.; assay: Postemergence herbicidal evaluation (Example 147); details: rating scale 0-9, two to three weeks after treatment
Method in brief: as §1

[9] = system: SETVI, Green foxtail, Setaria viridis, (L.)Beau; assay: Postemergence herbicidal evaluation (Example 147); details: rating scale 0-9, two to three weeks after treatment
Method in brief: as §1

[10] = system: TRZAW, Winter wheat, Tritium Aestivum, L. (Winter); assay: Postemergence herbicidal evaluation (Example 147); details: rating scale 0-9, two to three weeks after treatment
Method in brief: as §1

[11] = system: XANST, Cocklebur, Xanthium strumariam; assay: Postemergence herbicidal evaluation (Example 147); details: rating scale 0-9, two to three weeks after treatment
Method in brief: as §1

[12] = system: ZEAMX, Field corn, Zea mays L.; assay: Postemergence herbicidal evaluation (Example 147); details: rating scale 0-9, two to three weeks after treatment
Method in brief: as §1

[13] = system: ABUTH, Velvetleaf, Abutilon theophrasti, Medic.; assay: Preemergence herbicidal evaluation (Example 148); details: rating scale 0-9, two to four weeks after treatment
Method in brief: (§2)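 Test compound was applied in aqueous acetone to freshly planted cups at an equivalent of about 0.125 to 0.250 kg/ha, before emergence. Ratings, taken after two to four weeks of greenhouse growth, were averaged where a compound was tested more than once.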

[14] = system: ALOMY, Blackgrass, Alopecurus myosuroides; assay: Preemergence herbicidal evaluation (Example 148); details: rating scale 0-9, two to four weeks after treatment
Method in brief: as §2

[15] = system: AMBEL, Ragweed, Common, Ambrosia artemiisifolia, L.; assay: Preemergence herbicidal evaluation (Example 148); details: rating scale 0-9, two to four weeks after treatment
Method in brief: as §2

[16] = system: CHEAL, Lambsquarters, Chenopodium album, L. Common; assay: Preemergence herbicidal evaluation (Example 148); details: rating scale 0-9, two to four weeks after treatment
Method in brief: as §2

[17] = system: DIGSA, Crabgrass, (Hairy) L, Digitaria sanguinalis, (L)Scop; assay: Preemergence herbicidal evaluation (Example 148); details: rating scale 0-9, two to four weeks after treatment
Method in brief: as §2

[18] = system: ECHCG, Barnyardgrass, Echinochloa crusgalli, (L.)Beau; assay: Preemergence herbicidal evaluation (Example 148); details: rating scale 0-9, two to four weeks after treatment
Method in brief: as §2

[19] = system: GLXMA, Soybean, Glycine max, (L.) Merr.; assay: Preemergence herbicidal evaluation (Example 148); details: rating scale 0-9, two to four weeks after treatment
Method in brief: as §2

[20] = system: IPOHE, Morningglory, Ivyleaf, Ipomoea hederacea, (L)Jacq.; assay: Preemergence herbicidal evaluation (Example 148); details: rating scale 0-9, two to four weeks after treatment
Method in brief: as §2

[21] = system: SETVI, Green foxtail, Setaria viridis, (L.)Beau; assay: Preemergence herbicidal evaluation (Example 148); details: rating scale 0-9, two to four weeks after treatment
Method in brief: as §2

[22] = system: TRZAW, Winter wheat, Tritium Aestivum, L. (Winter); assay: Preemergence herbicidal evaluation (Example 148); details: rating scale 0-9, two to four weeks after treatment
Method in brief: as §2

[23] = system: XANST, Cocklebur, Xanthium strumariam; assay: Preemergence herbicidal evaluation (Example 148); details: rating scale 0-9, two to four weeks after treatment
Method in brief: as §2

[24] = system: ZEAMX, Field corn, Zea mays L.; assay: Preemergence herbicidal evaluation (Example 148); details: rating scale 0-9, two to four weeks after treatment
Method in brief: as §2

CN(Cc1ccccc1)S(=O)(=O)NC(=O)c1cc(-n2c(=O)cc(C(F)(F)F)n(C)c2=O)c(F)cc1Cl [Example 61]
8.5: Postemergence herbicidal rating GLXMA ([7]; rate 0.016 kg/ha) | Postemergence herbicidal rating GLXMA ([7]; rate 0.032 kg/ha)
8.0: Postemergence herbicidal rating CHEAL ([4]; rate 0.032 kg/ha) | Postemergence herbicidal rating ECHCG ([6]; rate 0.032 kg/ha) | Postemergence herbicidal rating IPOHE ([8]; rate 0.016 kg/ha)
6.0: Postemergence herbicidal rating DIGSA ([5]; rate 0.032 kg/ha) | Postemergence herbicidal rating TRZAW ([10]; rate 0.016 kg/ha) | Preemergence herbicidal rating DIGSA ([17]; rate 0.125 kg/ha) | Preemergence herbicidal rating SETVI ([21]; rate 0.25 kg/ha)
9.0: Postemergence herbicidal rating ABUTH ([1]; rate 0.016 kg/ha) | Postemergence herbicidal rating ABUTH ([1]; rate 0.032 kg/ha) | Postemergence herbicidal rating AMBEL ([3]; rate 0.016 kg/ha) | Postemergence herbicidal rating AMBEL ([3]; rate 0.032 kg/ha) | Postemergence herbicidal rating CHEAL ([4]; rate 0.016 kg/ha) | Postemergence herbicidal rating IPOHE ([8]; rate 0.032 kg/ha) | Postemergence herbicidal rating SETVI ([9]; rate 0.032 kg/ha) | Postemergence herbicidal rating XANST ([11]; rate 0.016 kg/ha) | Postemergence herbicidal rating XANST ([11]; rate 0.032 kg/ha) | Preemergence herbicidal rating ABUTH ([13]; rate 0.125 kg/ha) | Preemergence herbicidal rating ABUTH ([13]; rate 0.25 kg/ha) | Preemergence herbicidal rating AMBEL ([15]; rate 0.125 kg/ha) | Preemergence herbicidal rating AMBEL ([15]; rate 0.25 kg/ha) | Preemergence herbicidal rating CHEAL ([16]; rate 0.125 kg/ha) | Preemergence herbicidal rating CHEAL ([16]; rate 0.25 kg/ha) | Preemergence herbicidal rating DIGSA ([17]; rate 0.25 kg/ha) | Preemergence herbicidal rating GLXMA ([19]; rate 0.125 kg/ha) | Preemergence herbicidal rating GLXMA ([19]; rate 0.25 kg/ha) | Preemergence herbicidal rating IPOHE ([20]; rate 0.125 kg/ha) | Preemergence herbicidal rating IPOHE ([20]; rate 0.25 kg/ha) | Preemergence herbicidal rating XANST ([23]; rate 0.125 kg/ha) | Preemergence herbicidal rating XANST ([23]; rate 0.25 kg/ha)
7.0: Postemergence herbicidal rating DIGSA ([5]; rate 0.016 kg/ha) | Postemergence herbicidal rating ECHCG ([6]; rate 0.016 kg/ha) | Postemergence herbicidal rating SETVI ([9]; rate 0.016 kg/ha) | Preemergence herbicidal rating ECHCG ([18]; rate 0.25 kg/ha)
7.5: Postemergence herbicidal rating ZEAMX ([12]; rate 0.016 kg/ha) | Postemergence herbicidal rating ZEAMX ([12]; rate 0.032 kg/ha)
3.0: Preemergence herbicidal rating SETVI ([21]; rate 0.125 kg/ha) | Preemergence herbicidal rating TRZAW ([22]; rate 0.25 kg/ha)
1.0: Postemergence herbicidal rating ALMOY ([2]; rate 0.016 kg/ha) | Postemergence herbicidal rating ALMOY ([2]; rate 0.032 kg/ha)
6.5: Postemergence herbicidal rating TRZAW ([10]; rate 0.032 kg/ha)
0.0: Preemergence herbicidal rating ALMOY ([14]; rate 0.125 kg/ha) | Preemergence herbicidal rating ALMOY ([14]; rate 0.25 kg/ha)
2.0: Preemergence herbicidal rating TRZAW ([22]; rate 0.125 kg/ha) | Preemergence herbicidal rating ZEAMX ([24]; rate 0.125 kg/ha) | Preemergence herbicidal rating ZEAMX ([24]; rate 0.25 kg/ha)
4.0: Preemergence herbicidal rating ECHCG ([18]; rate 0.125 kg/ha)

CCCN(CC)S(=O)(=O)NC(=O)c1cc(-n2c(=O)cc(C(F)(F)F)n(C)c2=O)c(F)cc1Cl [Example 62]
5.5: Postemergence herbicidal rating TRZAW ([10]; rate 0.016 kg/ha)
6.0: Postemergence herbicidal rating ECHCG ([6]; rate 0.016 kg/ha) | Postemergence herbicidal rating SETVI ([9]; rate 0.016 kg/ha) | Postemergence herbicidal rating SETVI ([9]; rate 0.032 kg/ha) | Preemergence herbicidal rating ECHCG ([18]; rate 0.25 kg/ha)
2.0: Postemergence herbicidal rating ALMOY ([2]; rate 0.016 kg/ha) | Postemergence herbicidal rating ALMOY ([2]; rate 0.032 kg/ha)
1.0: Preemergence herbicidal rating ZEAMX ([24]; rate 0.125 kg/ha) | Preemergence herbicidal rating ZEAMX ([24]; rate 0.25 kg/ha)
6.5: Postemergence herbicidal rating TRZAW ([10]; rate 0.032 kg/ha) | Postemergence herbicidal rating ZEAMX ([12]; rate 0.016 kg/ha) | Postemergence herbicidal rating ZEAMX ([12]; rate 0.032 kg/ha)
3.0: Preemergence herbicidal rating ECHCG ([18]; rate 0.125 kg/ha) | Preemergence herbicidal rating SETVI ([21]; rate 0.125 kg/ha) | Preemergence herbicidal rating TRZAW ([22]; rate 0.125 kg/ha)
9.0: Postemergence herbicidal rating ABUTH ([1]; rate 0.016 kg/ha) | Postemergence herbicidal rating ABUTH ([1]; rate 0.032 kg/ha) | Postemergence herbicidal rating AMBEL ([3]; rate 0.016 kg/ha) | Postemergence herbicidal rating AMBEL ([3]; rate 0.032 kg/ha) | Postemergence herbicidal rating IPOHE ([8]; rate 0.016 kg/ha) | Postemergence herbicidal rating IPOHE ([8]; rate 0.032 kg/ha) | Postemergence herbicidal rating XANST ([11]; rate 0.016 kg/ha) | Postemergence herbicidal rating XANST ([11]; rate 0.032 kg/ha) | Preemergence herbicidal rating ABUTH ([13]; rate 0.125 kg/ha) | Preemergence herbicidal rating ABUTH ([13]; rate 0.25 kg/ha) | Preemergence herbicidal rating AMBEL ([15]; rate 0.125 kg/ha) | Preemergence herbicidal rating AMBEL ([15]; rate 0.25 kg/ha) | Preemergence herbicidal rating CHEAL ([16]; rate 0.125 kg/ha) | Preemergence herbicidal rating CHEAL ([16]; rate 0.25 kg/ha) | Preemergence herbicidal rating GLXMA ([19]; rate 0.25 kg/ha) | Preemergence herbicidal rating IPOHE ([20]; rate 0.125 kg/ha) | Preemergence herbicidal rating IPOHE ([20]; rate 0.25 kg/ha) | Preemergence herbicidal rating XANST ([23]; rate 0.125 kg/ha) | Preemergence herbicidal rating XANST ([23]; rate 0.25 kg/ha)
5.0: Postemergence herbicidal rating DIGSA ([5]; rate 0.016 kg/ha) | Postemergence herbicidal rating DIGSA ([5]; rate 0.032 kg/ha) | Preemergence herbicidal rating DIGSA ([17]; rate 0.125 kg/ha) | Preemergence herbicidal rating GLXMA ([19]; rate 0.125 kg/ha) | Preemergence herbicidal rating TRZAW ([22]; rate 0.25 kg/ha)
0.0: Preemergence herbicidal rating ALMOY ([14]; rate 0.125 kg/ha) | Preemergence herbicidal rating ALMOY ([14]; rate 0.25 kg/ha)
7.0: Postemergence herbicidal rating CHEAL ([4]; rate 0.016 kg/ha) | Postemergence herbicidal rating ECHCG ([6]; rate 0.032 kg/ha) | Preemergence herbicidal rating DIGSA ([17]; rate 0.25 kg/ha) | Preemergence herbicidal rating SETVI ([21]; rate 0.25 kg/ha)
8.0: Postemergence herbicidal rating CHEAL ([4]; rate 0.032 kg/ha) | Postemergence herbicidal rating GLXMA ([7]; rate 0.016 kg/ha) | Postemergence herbicidal rating GLXMA ([7]; rate 0.032 kg/ha)
